Data: patent publication US8143313B2, “Compositions and methods for preventing or treating an inflammatory response” (McGill University, priority 2004, dated 2012)

Columns and labels:
CFTE29o- = assay: Apoptosis, in situ end labeling of DNA strand breaks, CFTR-deficient cells; type: cell-based, human; conditions: for apoptosis by fluorescein staining: no TNF-α
Description: (§1) Adherent epithelial cell lines, CFTE29o- and 9HTEo-, grown on coated coverslips for 24 hours, were treated with fenretinide at the same concentrations used to determine IL-8 release as indicated supra. After a 24-hour incubation with fenretinide, cells were stimulated with TNF-α (experimental group) or with Cisplatin at […] (as a positive control) for an additional 24 hours. Cells were fixed in 4% paraformaldehyde in PBS at pH 7.4 for one hour at room temperature. Cells were subsequently washed and permeabilized using 0.1% TRITON™ X-100 in 0.1% citrate buffer for 2 minutes on ice. After being washed, the coverslips were individually removed from 24-well plates and cells were incubated for one hour at 37° C. with terminal deoxynucleotidyl transferase (Tdt) enzyme conjugated to fluorescein (Roche Diagnostics, Indianapolis, Ind.) for visualization. A negative slide was produced by incubating a slide of both cell lines with buffer minus the Tdt enzyme. The Tdt enzyme binds to the free hydroxyl end of DNA strand breaks. Subsequently, cells were washed twice with PBS and coverslips were placed on slides in the presence of the anti-fade medium VECTASHIELD® to facilitate fluorescence preservation. Slides were individually labeled with numbers to keep the investigator blinded to the outcome until after the slides were reviewed. Four randomly selected fields were visualized at 400× (total magnification) using a fluorescence microscopy and cells that appeared brightly flourescent were counted. Pictures were taken to estimate the number of positive to negative cells per field.

[1] = test system: CFTR-deficient cells (CFTE29o-); assay: IL-8 release (ELISA) by CFTR-deficient human tracheal epithelial cells; type: cell-based
Description: (§2) General Procedures. Normal (9HTEo-) and CFTR-deficient human tracheal epithelial cells (CFTE29o- ΔF508 CFTR) were used in the analysis disclosed herein and grown in pre-coated T-75 flasks in a medium containing 10% fetal bovine serum (FBS). Cells were re-fed every 2-3 days until they reached confluency. Adherent monolayers were released from the plastic surface after treatment with trypsin-EDTA (Sigma-Aldrich Co., St. Louis, Mo.) and split into 24-well plates for about 24 hours before receiving treatments.
(§3) Treatment with Fenretinide and TNF-α. Normal and CFTR-deficient cells were treated with fenretinide (Wang, et al. (2001) Cancer Res. 61:5102-5105; Erdreich-Epstein, et al. (2002) supra) at doses known to effectively increase cellular ceramide content in cell culture. Normal (9HTEo-; 0.4×10^6 cells/well) and CFTR-deficient human epithelial cells (CFTE29o- ΔF508 CFTR; 0.6×10^6 cells/well) were incubated for 24 hours at 37° C. in 5% CO2 with 1.25 μM, 2.5 μM or 5 μM fenretinide in Eagle's minimum essential medium (MEM) containing 10% fetal bovine serum (FBS). Subsequently, the medium was replaced with fresh MEM 2% FBS containing the same initial concentrations of fenretinide and cells were grown for an additional 24 hours to characterize the impact of fenretinide on IL-8 release in a non-inflammatory condition. To characterize the inflammatory condition, cells were treated with MEM 2% FBS containing 1.25 μM, 2.5 μM or 5 μM fenretinide and concurrently stimulated with human recombinant TNF-α (10 ng/mL) for another 24 hours. All experiments included unstimulated negative control wells.
IL-8 Release and Cell Viability Assays. Supernatants were collected from treated cells and the amount of IL-8 released into the medium was determined using an enzyme-linked immunosorbent assay (ELISA) kit (OPTEIA™ Human IL-8 Set; BD PHARMINGEN™, San Diego, Calif.). Briefly, 96-well plates were coated overnight with capture antibody, washed with PBS, 0.05% TWEEN®-20 and coated with PBS, 10% heat-inactivated FBS. Known concentrations of IL-8 (standard) and supernatants containing released IL-8 were added as aliquots into appropriate wells, incubated for 2 hours and subsequently decanted from the wells. Enzyme-conjugated anti-IL-8 antibody was added and incubated for 1 hour. After washing the plate, a substrate for the enzyme was added and the plate incubated for 30 minutes. The reaction was stopped using a 2NH2SO4 solution and the absorbance was read at 450 nm.

normal cells (9HTEo-) = assay: IL-8 release (ELISA) by normal human tracheal epithelial cells; type: cell-based
Description: as §2, §3
IL-8 Release and Cell Viability Assays. Supernatants were collected from treated cells and the amount of IL-8 released into the medium was determined using an enzyme-linked immunosorbent assay (ELISA) kit (OPTEIA™ Human IL-8 Set; BD PHARMINGEN™, San Diego, Calif.). Briefly, 96-well plates were coated overnight with capture antibody, washed with PBS, 0.05% TWEEN®-20 and coated with PBS, 10% heat-inactivated FBS. […] The reaction was stopped using a 2NH2SO4 solution and the absorbance was read at 450 nm.

[2] = test system: CFTR-deficient human epithelial cells (CFTE29o-); assay: Proliferation (viable cell counts) of CFTR-deficient human epithelial cells; type: cell-based
Description: CFTE29o- (0.6×10^6/well in a 24-well plate) cells were incubated with 1.25 μM, 2.5 μM or 5 μM of fenretinide for 24 hours in a MEM containing 10% FBS. Vehicle control wells contained ethanol (EtOH) at concentrations equivalent to those used with fenretinide treatments.
CFTE29o- cells were incubated with 1.25 μM, 2.5 μM or 5 μM of fenretinide for 24 hours in a MEM containing 10% FBS. After 24 hours, the medium was replaced by MEM 2% FBS containing the same concentrations of fenretinide and stimulated with TNF-α for another 24 hours. Viable cell counts were determined.
as §3
(§4) Cell viability was assessed using a 3-(4,5-dimethylthiazol-2-yl)-2,5-diphenyltetrazolium bromide (MTT) assay according to standard methods (Mosmann, T. (1983) J. Immunol. Methods. 65:55-63). […] Cells were incubated for 4 hours at 37° C., supernatant was aspirated, HCl-isopropanol solution (0.04 N HCl in isopropanol) was added, and after 5 minutes the optical densities were measured at 540 nm. […]

[3] = test system: normal human epithelial cells (9HTEo-); assay: Proliferation (viable cell counts) of normal human epithelial cells; type: cell-based; conditions: pro-inflammatory and non-inflammatory state, in particular 2.5 μM and higher
Description: 9HTEo- (0.4×10^6/well in a 24-well plate) cells were incubated with 1.25 μM, 2.5 μM or 5 μM of fenretinide for 24 hours in a MEM containing 10% FBS. Vehicle control wells contained ethanol (EtOH) at concentrations equivalent to those used with fenretinide treatments.
9HTEo- cells were incubated with 1.25 μM, 2.5 μM or 5 μM of fenretinide for 24 hours in a MEM containing 10% FBS. After 24 hours, the medium was replaced by MEM 2% FBS containing the same concentrations of fenretinide and stimulated with TNF-α for another 24 hours.
Treatment with Fenretinide and TNF-α. Normal and CFTR-deficient cells were treated with fenretinide (Wang, et al. (2001) Cancer Res. 61:5102-5105; Erdreich-Epstein, et al. (2002) supra) at doses known to effectively increase cellular ceramide content in cell culture. […]
as §4

9HTEo- = assay: Apoptosis, in situ end labeling of DNA strand breaks, non-cystic fibrosis cells; type: cell-based, human; conditions: for apoptosis by fluorescein staining: no TNF-α
Description: as §1

Pseudomonas aeruginosa = assay: Pulmonary infection of CFTR knockout and wild-type mice with P. aeruginosa; type: in vivo, mouse
Source text: Homogenous C57BL/6 Cftr^unc knockout mice generated by insertion of a stop codon in exon 10 of Cftr gene are well-known in the art (Snouwaert, et al. (1992) Science 257:1083-8; Gosselin, et al. (1998) Am. J. Respir. Crit. Care Med. 157:1253-62). Mice used in these studies represent offsprings from B6-Cftr^unc (+/−) mice backcrossed to C57BL/6 mice for 10 to 12 generations.
Housing Conditions. B6-Cftr (−/−) and B6-Cftr (+/+) mice were housed on corn cob bedding (Anderson, Maumee, Ohio) and fed sterile PEPTAMEN® (Clintec Nutrition, Deerfield, Ill.), a low-residue liquid diet which was previously shown to prevent intestinal obstruction in Cftr^unc knockout mice (Eckman, et al. (1995) Am. J. Physiol. 269:L625-L630). A standard diet was used (Gosselin, et al. (1998) supra), wherein the caloric content of the diet was 420 KJ/100 mL and an adult mouse consumes approximately 15 mL/day. In order to maintain the sterility of the diet, it was changed daily. For one month prior to pulmonary infection with P. aeruginosa, mice were provided fenretinide (prepared in PEPTAMEN®) in the drinking water at 5 mg/kg body weight. The dose was set for each individual mouse based on its weight and adjusted every week (e.g., 147 μg/mouse/day for 30 gram mouse).
Infection of Mice. […] The number of viable P. aeruginosa entrapped in agar beads was determined by plating serial dilutions of the homogenized bead suspension on TSA plates. […]
Bronchoalveolar Lavages (BAL). […] Alveolar cells were centrifuged, resuspended in 1 mL PBS, stained with Turk's solution and counted. The proportions of macrophages, lymphocytes, and polymorphonuclear leukocytes (PMN) were calculated after counting 200 alveolar cells on cytospin preparations stained with DIFF-QUICK® (American Scientific Products, McGaw Park, Ill.).
Measurement of Bacterial Burden. […] Serial 10-fold dilutions of homogenates were plated on petri dishes containing TSA and the number of colony-forming units (CFU) per organs was counted after overnight incubation at 37° C. […]

[4] = oral, once a day, 28-day courses, cited from earlier work
[5] = CFTR-deficient and wild-type mice, 5 mg/kg for one month before challenge, 3 days post-infection

SMILES: N.N.[Cl][Pt][Cl] [cisplatin]
- apoptotic effect of positive control (CFTE29o-; CFTR-deficient epithelial cells, as opposed to non-cystic fibrosis cells): resistant to the apoptotic effects

SMILES: CC1=C(/C=C/C(C)=C/C=C/C(C)=C/C(=O)Nc2ccc(O)cc2)C(C)(C)CCC1 [fenretinide, all-trans-N-(4-hydroxyphenyl)retinamide]
- IL-8 level as % of the TNF-α-stimulated value, dose-dependent reduction ([1]; CFTE29o-, TNF-α 10 ng/mL, fenretinide 1.25-5 μM, greatest reduction): 70%
- threshold level for significance of IL-8 reduction ([1]; CFTE29o-, TNF-α-stimulated): 2.5 µM
- activity at 1.25 µM ([1]; Homo sapiens, Epithelial cell, CFTE29o-, TNF-α 10 ng/mL, 1.25 μM fenretinide, not significantly different from control, read-out: IL-8 level as % of control (TNF-α only)): 86%
- increase of IL-8 levels in the absence of TNF-α stimulation ([1]; cystic fibrosis cells, no TNF-α, fenretinide 1.25-5 μM, dose-dependent): 2- to 8 fold
- IL-8 maximum level as % of that secreted by TNF-α-stimulated cells (normal cells (9HTEo-); 9HTEo-, TNF-α 10 ng/mL, fenretinide 1.25-5 μM): 139%
- threshold level of IL-8 enhancement (normal cells (9HTEo-); 9HTEo-, TNF-α-stimulated): 2.5 µM
- enhancement in basal IL-8 release (normal cells (9HTEo-); non-cystic fibrosis cells, no TNF-α, all treatment doses): greater than 14 fold
- cell numbers ([2]; CFTR-deficient cells, non-inflammatory condition, 2.5 μM): decrease in CFTR-deficient epithelial cell numbers
- cell proliferation ([2]; CFTR-deficient cells, pro-inflammatory and non-inflammatory state, in particular 2.5 μM and higher): significant decrease in cell proliferation
- cell numbers ([2]; cystic fibrosis cells, 1.25 μM): did not show a decrease in cell numbers
- cell proliferation [3]: significant decrease in cell proliferation
- apoptosis in the presence of TNF-α (CFTE29o-; CFTR-deficient cells, TNF-α, 1.25 and 2.5 μM): no enhancement of apoptosis
- apoptosis by fluorescein staining (CFTE29o-; CFTR-deficient cells, 1.25 μM): no morphology of apoptosis, weak fluorescence was observed
- apoptosis by fluorescein staining (CFTE29o-; CFTR-deficient cells, 2.5 μM): early stage apoptosis
- apoptosis in the presence of TNF-α (9HTEo-; TNF-α, both doses (1.25 and 2.5 μM)): significant apoptosis
- apoptosis by fluorescein staining (9HTEo-; 1.25 μM): weaker fluorescence and an earlier stage of apoptosis
- apoptosis by fluorescein staining (9HTEo-; 2.5 μM): strong fluorescence and classic apoptotic morphology
- bacterial burden in lungs (Pseudomonas aeruginosa; [5]): reduced
- recruitment of inflammatory cells to the lungs (Pseudomonas aeruginosa; [5]): decrease in the recruitment of inflammatory cells
- reduction in P. aeruginosa cell numbers as compared to controls (Pseudomonas aeruginosa; cystic fibrosis mice pretreated with fenretinide): approximately 40%
- subjects with side effects ([4]; subjects 2-21 years with neuroblastoma): 15 of the 45
- time to reversal of side effects after discontinuation of treatment [4]: ≤ 7 days
